According to patent US12514840B2, “Treatment of idiopathic hypohidrosis” (NATIONAL SKIN CENTRE (SINGAPORE) PTE LTD, priority 2019, dated 2026):

Tests used:
Type in all cases: in vivo, human
[1] = system: sweat apparatus (glands or ducts) of patients with idiopathic hypohidrosis; assay: Injection of Carbachol to locate the pathology in idiopathic hypohidrosis (induction of sweating)
[2] = system: patients with idiopathic hypohidrosis; assay: Long term retrospective assessment of 28 patients with idiopathic hypohidrosis, 20 treated with retinoids
Procedure: A retrospective analysis on patients with isolated hypohidrosis who attended a neuro-dermatology clinic over a 5.75-year period was conducted. All patients routinely underwent standardized exercising and whole-body starch-iodine test, followed by non-invasive HD-OCT skin imaging, and their treatment history was analysed.
28 patients with idiopathic hypohidrosis were included in the study, 14 of whom were affected in a generalised manner (with 70% and more of body surface affected) and 14 in a partial manner. 14 of the 28 patients were those which were the subject of Example 1, and 14 patients were new.

[3] = system: patients with idiopathic hypohidrosis; assay: Treatment of fourteen patients with idiopathic hypohidrosis with oral retinoids (exercise, starch-iodine sweat test, HD-OCT); settings: for patients who responded and were successfully treated: generalised hypohidrosis, three with acitretin (one did not respond)
Procedure: Fourteen patients presenting with idiopathic hypohidrosis underwent monitored exercising on a stationary bicycle for 20 minutes. Their temperature and heart rate were repeatedly measured during the exercise. Subsequently, using a spray gun, starch-iodine powder was sprayed onto the whole body of the patient and the powder coats onto the skin (FIG. 1). The coat of powder on body areas with sweating turned purple, while the powder in areas without sweat remained brown (FIG. 2). This allows the body surface area of anhidrosis to be assessed. Thereafter, the patient rinsed off the powder, which washed off easily with water.
The patients' skin was subsequently imaged using high-definition optical coherence tomography (HD-OCT) non-invasive skin imaging (Skintell, Agfa, Belgium). HD-OCT uses an infrared (1000-1700 nm), interferometric and time-domain imaging technique. Instead of a single pin diode light detector, it uses a two-dimensional imaging array to allow for simultaneous cross-sectional and en face images acquisition. A high lateral resolution of 3 μm is ensured using a technique called continuous focus tracking. The capture of a 3D image (containing 57 million voxels) takes 2-3 seconds and the information acquired can subsequently be digitally analysed.
The fourteen patients suffering from idiopathic hypohidrosis were offered treatment according to the invention.
All of the treated patients were started on an oral dose of isotretinoin or acitretin of between 5 and 20 mg once daily for at least six weeks. If necessary, this dose was adjusted, whether increased because the initial dose was ineffective, or decreased to reduce the expected side effects associated with oral retinoids. All patients responded to a dose of between 10 and 30 mg once daily. This dose was further adjusted as required until symptoms of idiopathic hypohidrosis had resolved. Administration of retinoids was continued to prevent reoccurrence of symptoms.

[4] = five treated with isotretinoin, oral once daily
[5] = one patient successfully treated with isotretinoin

SMILES: C[N+](C)(C)CCOC(N)=O [Carbachol]
- induction of sweating ([1]; injection at regions where patients could sweat): induced sweating
- induction of sweating ([1]; injection in areas where patients cannot sweat): could not do so

SMILES: CC1=C(/C=C/C(C)=C/C=C/C(C)=C\C(=O)O)C(C)(C)CCC1 [isotretinoin, 13-cis-retinoic acid]
- patients recovered well enough to return to their pre-morbid sporting activities ([2]; seventeen patients (7 generalised and 10 partial), oral): 100%
- patients who responded and were successfully treated [3, 4]: All five
- HD-OCT imaging of lesions after treatment [3, 5]: no longer visible
- sweat test after treatment [3, 5]: normalised extent of sweating
- patients who responded to treatment and were successfully treated ([3]; partial hypohidrosis, five treated with isotretinoin, oral once daily): All five

SMILES: COc1cc(C)c(/C=C/C(C)=C/C=C/C(C)=C/C(=O)O)c(C)c1C [acitretin]
- patients recovered ([2]; of three patients treated, one did not respond): 2 patients
- patients who responded and were successfully treated [3, 4]: Two of the three
